The numbers were not newly measured in patent publication US9381220B2, “Sceletium extract and uses thereof” (H. L. Hall & Sons Limited, priority 2009, dated 2016), which cites them from elsewhere.

The conditions of series [1]: fermentation, exposure to light, exposure to heat, aqueous medium.
In series [2] the test system is PDE4. Particulars: Napoletano et al. 2001.
Series [3] addresses 5-HT uptake (Homo sapiens, UniProt P31645). Particulars: as described in U.S. Pat. No. 6,288,104.

Molecules are shown by their SMILES.

Sequence of 5-HT uptake (P31645 whole entry): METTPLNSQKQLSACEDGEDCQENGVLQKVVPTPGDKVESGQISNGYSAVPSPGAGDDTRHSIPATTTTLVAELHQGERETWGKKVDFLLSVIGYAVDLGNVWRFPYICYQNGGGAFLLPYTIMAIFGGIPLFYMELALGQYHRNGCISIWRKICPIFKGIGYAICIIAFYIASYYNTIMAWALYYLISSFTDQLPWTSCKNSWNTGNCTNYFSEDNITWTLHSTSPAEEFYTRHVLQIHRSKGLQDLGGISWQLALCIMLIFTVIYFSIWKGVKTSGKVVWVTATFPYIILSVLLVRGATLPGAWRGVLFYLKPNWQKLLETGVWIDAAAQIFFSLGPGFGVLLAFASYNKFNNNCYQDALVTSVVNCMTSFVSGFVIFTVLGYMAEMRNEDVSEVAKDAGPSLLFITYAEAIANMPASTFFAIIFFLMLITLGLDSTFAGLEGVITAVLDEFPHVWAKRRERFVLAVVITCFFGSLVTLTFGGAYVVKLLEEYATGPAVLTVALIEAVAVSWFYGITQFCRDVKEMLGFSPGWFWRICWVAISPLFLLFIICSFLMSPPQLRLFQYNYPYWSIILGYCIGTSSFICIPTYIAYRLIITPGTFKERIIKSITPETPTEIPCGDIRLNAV

For the molecule `COc1ccc([C@@]23CCC(=O)C[C@@H]2N(C)CC3)cc1OC` [mesembrine], in series [1], the stability entry was “unstable”.
Take `COc1ccc(C23CCC(=O)CC2N(C)CC3)cc1OC.Cl` (stereo not drawn) [Mesembrine hydrochloride]: the PDE4 inhibition entry in series [2] is “weak PDE4 inhibitor”.
For `COc1ccc(C23C=CC(O)CC2N(C)CC3)cc1OC` (stereo not drawn) [mesembrenol], the “5-HT uptake inhibitory activity” value in series [3] is given as “potent 5-HT uptake inhibitory activity”.
